Measurements as given in US10759751B2, “Substituted spirocyclohexanes as muscarinic M1 receptor and/or M4 receptor agonists” (Heptares Therapeutics Limited, priority 2016, dated 2020).

Experiments:
[1] = biological target: T1, human muscarinic M1 receptor (Homo sapiens, UniProt P11229); assay: Alphascreen Surefire phospho-ERK1/2 functional assay, M1; format: cell-based; details: for EC50: phospho-ERK1/2, read-out: pEC50 M1 (converted); for Emax: CHO, read-out: M1 % Emax cf. ACh, CHO cells stably expressing human M1; for selectivity for the M1 receptor relative to the M4 receptor: M1 versus M4, in words
T1 sequence (P11229 1-460): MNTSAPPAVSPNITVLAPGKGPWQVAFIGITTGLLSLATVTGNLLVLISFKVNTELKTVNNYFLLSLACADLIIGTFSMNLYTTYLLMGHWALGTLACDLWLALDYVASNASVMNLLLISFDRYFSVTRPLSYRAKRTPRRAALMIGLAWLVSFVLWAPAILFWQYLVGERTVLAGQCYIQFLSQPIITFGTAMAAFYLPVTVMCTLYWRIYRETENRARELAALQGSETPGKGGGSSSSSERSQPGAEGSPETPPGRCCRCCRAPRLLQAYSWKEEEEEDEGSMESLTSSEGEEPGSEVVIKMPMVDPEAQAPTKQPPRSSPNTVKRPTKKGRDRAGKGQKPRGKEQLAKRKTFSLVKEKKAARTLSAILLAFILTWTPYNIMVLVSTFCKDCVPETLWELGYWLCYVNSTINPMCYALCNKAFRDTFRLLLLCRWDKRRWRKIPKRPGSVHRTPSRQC
Protocol: (§1) Functional assays were performed using the Alphascreen Surefire phospho-ERK1/2 assay (Crouch & Osmond, Comb. Chem. High Throughput Screen, 2008). ERK1/2 phosphorylation is a downstream consequence of both Gq/11 and Gi/o protein coupled receptor activation, making it highly suitable for the assessment of M1, M3 (Gq/11 coupled) and M2, M4 receptors (Gi/o coupled), rather than using different assay formats for different receptor subtypes. CHO cells stably expressing the human muscarinic M1, M2, M3 or M4 receptor were plated (25K/well) onto 96-well tissue culture plates in MEM-alpha+10% dialysed FBS. Once adhered, cells were serum-starved overnight. Agonist stimulation was performed by the addition of 5 μL agonist to the cells for 5 min (37° C.). Media was removed and 50 μL of lysis buffer added. After 15 min, a 4 μL sample was transferred to 384-well plate and 7 μL of detection mixture added. Plates were incubated for 2 h with gentle agitation in the dark and then read on a PHERAstar plate reader.
(§2) pEC50 and Emax figures were calculated from the resulting data for each receptor subtype.

[2] = biological target: T2, human muscarinic M4 receptor (Homo sapiens, UniProt P08173); assay: Alphascreen Surefire phospho-ERK1/2 functional assay, M4; format: cell-based; details: for EC50: read-out: pEC50 M4 (converted); for Emax: CHO, read-out: M4 % Emax cf. ACh, CHO cells stably expressing human M4
T2 construct: expressed in transfected cells
T2 sequence (P08173 1-479): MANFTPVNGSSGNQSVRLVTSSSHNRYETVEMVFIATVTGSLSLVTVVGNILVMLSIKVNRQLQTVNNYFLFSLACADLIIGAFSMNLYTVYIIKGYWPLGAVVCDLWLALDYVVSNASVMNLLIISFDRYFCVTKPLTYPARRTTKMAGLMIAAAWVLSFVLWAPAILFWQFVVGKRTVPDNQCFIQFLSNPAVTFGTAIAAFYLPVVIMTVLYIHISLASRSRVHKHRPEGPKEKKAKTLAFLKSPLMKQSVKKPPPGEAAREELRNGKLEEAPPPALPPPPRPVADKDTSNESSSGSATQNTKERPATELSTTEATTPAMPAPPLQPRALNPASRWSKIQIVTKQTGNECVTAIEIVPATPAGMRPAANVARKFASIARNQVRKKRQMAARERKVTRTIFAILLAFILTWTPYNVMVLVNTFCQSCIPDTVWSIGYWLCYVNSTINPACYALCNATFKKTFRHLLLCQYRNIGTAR
Protocol: as §1, §2

[3] = CHO cells stably expressing human M1
[4] = CHO cells stably expressing human M4, phospho-ERK1/2

Question: Which results are given for `CCOC(=O)N1CCN(C2CCC(C#N)(c3ccccc3)CC2)CC(O)C1` (mixture of isomers) [3-26 mixture of isomers]?
Answer: EC50 [1, 3]: 40.7 nM; Emax ([1]; Emax relative to ACh): 85%

Question: `CCOC(=O)N1CC2(CCN(C3CCC4(CC3)C(=O)Nc3ccccc34)C2)C1` (mixture of isomers) [10-1 mixture of isomers] was tested. Which EC50 [2, 4] did it give?
Answer: The EC50 was > 20000 nM.

Question: What about the Emax ([2]; Emax relative to ACh) of the same molecule?
Answer: Its Emax is 8%.

Question: And the EC50 [1, 3]?
Answer: Its EC50 is 38.9 nM.

Question: What about the Emax ([1]; Emax relative to ACh) of the same molecule?
Answer: The Emax was 39%.

Question: How did the EC50 [2, 4] turn out when `CCOC(=O)N[C@@H]1CCN(C2CCC(C#N)(c3cccc(F)c3)CC2)C1` (single isomer, unassigned) [1-6 Isomer 2] was run?
Answer: Its EC50 is 1780 nM.

Question: What about the Emax ([2]; Emax relative to ACh) of the same molecule?
Answer: Its Emax is 49%.

Question: And the EC50 [1, 3]?
Answer: Its EC50 is 229 nM.

Question: And the Emax ([1]; Emax relative to ACh)?
Answer: Its Emax is 116%.

Question: For `CCOC(=O)N[C@H]1CCN(C2CCC(C#N)(c3ccc(Cl)cn3)CC2)C1` (single isomer, unassigned) [1-15 Isomer 2], which EC50 [2, 4] is on record?
Answer: Its EC50 is > 20000 nM.

Question: And the Emax ([2]; Emax relative to ACh)?
Answer: Its Emax is 7%.

Question: And the EC50 [1, 3]?
Answer: Its EC50 is 269 nM.

Question: What about the Emax ([1]; Emax relative to ACh) of the same molecule?
Answer: The Emax was 39%.

Question: How did the EC50 [2, 4] turn out when `CCOC(=O)N[C@@H]1CCN(C2CCC3(CC2)C(=O)Nc2ccccc23)C1` (single isomer, unassigned) [2-2 isomer 1] was run?
Answer: The EC50 was 871 nM.

Question: What about the Emax ([2]; Emax relative to ACh) of the same molecule?
Answer: Its Emax is 84%.

Question: And the EC50 [1, 3]?
Answer: Its EC50 is 158 nM.

Question: What about the Emax ([1]; Emax relative to ACh) of the same molecule?
Answer: Its Emax is 103%.

Question: What does the source list for `CCOC(=O)N[C@H]1CCN(C2CCC3(CC2)C(=O)Nc2c(C)cccc23)C1` (single isomer, unassigned) [2-3 isomer 1]?
Answer: EC50 [2, 4]: > 20000 nM; Emax ([2]; Emax relative to ACh): 1%; EC50 [1, 3]: 77.6 nM; Emax ([1]; Emax relative to ACh): 32%

Question: `CCOC(=O)N[C@H]1CCN(C2CCC3(CC2)C(=O)Nc2cc(F)ccc23)C1` (single isomer, unassigned) [2-7 isomer 1] was tested. Which “M4 % Emax cf. ACh” value ([2]; CHO cells stably expressing human M4, Emax relative to ACh) did it give?
Answer: Its value is 1%.

Question: And the “pEC50 M4” value [2, 4]?
Answer: Its value is < 4.7.

Question: And the “M1 % Emax cf. ACh” value ([1]; CHO cells stably expressing human M1, Emax relative to ACh)?
Answer: The value was 35%.

Question: And the EC50 [1, 3]?
Answer: The EC50 was 1780 nM.

Question: How did the “selectivity for the M1 receptor relative to the M4 receptor” value [1] turn out when `CCOC(=O)N[C@H]1CCN(C2CCC(C#N)(c3ccccc3)CC2)C1` (single isomer, unassigned) [Example 1-1] was run?
Answer: The value was “highly selective for the M1 receptor relative to the M4 receptor”.

Question: With `CCOC(=O)N[C@H]1CCN(C2CCC(C#N)(c3cccc(F)c3)CC2)C1` (single isomer, unassigned) [Example 1-3] as the molecule, how does the “selectivity for the M1 receptor relative to the M4 receptor” value [1] read?
Answer: The value was “highly selective for the M1 receptor relative to the M4 receptor”.

Question: How did the “selectivity for the M1 receptor relative to the M4 receptor” value [1] turn out when `CCOC(=O)N[C@H]1CCN(C2CCC(C#N)(c3ccc(F)cc3)CC2)C1` (single isomer, unassigned) [Example 1-4] was run?
Answer: The value was “highly selective for the M1 receptor relative to the M4 receptor”.

Question: `CCOC(=O)N[C@H]1CCN(C2CCC(C#N)(c3cccc(C)c3)CC2)C1` (single isomer, unassigned) [Example 1-9] was tested. Which “selectivity for the M1 receptor relative to the M4 receptor” value [1] did it give?
Answer: The value was “highly selective for the M1 receptor relative to the M4 receptor”.

Question: `CCOC(=O)N[C@H]1CCN(C2CCC(C#N)(c3cccc(Cl)c3)CC2)C1` (single isomer, unassigned) [Example 1-10] was tested. Which “selectivity for the M1 receptor relative to the M4 receptor” value [1] did it give?
Answer: The value was “highly selective for the M1 receptor relative to the M4 receptor”.

Question: For `CCOC(=O)N[C@H]1CCN(C2CCC3(CC2)C(=O)Nc2ccccc23)C1` (single isomer, unassigned) [Example 2-1], which “selectivity for the M1 receptor relative to the M4 receptor” value [1] is on record?
Answer: The value was “highly selective for the M1 receptor relative to the M4 receptor”.

Question: `CCOC(=O)N[C@H]1CCN(C2CCC3(CC2)C(=O)Nc2c(C)cccc23)C1` (single isomer, unassigned) [Example 2-3] was tested. Which “selectivity for the M1 receptor relative to the M4 receptor” value [1] did it give?
Answer: Its value is “highly selective for the M1 receptor relative to the M4 receptor”.

Question: With `CCOC(=O)N[C@H]1CCN(C2CCC3(CC2)C(=O)Nc2cc(C)ccc23)C1` (single isomer, unassigned) [Example 2-4] as the molecule, how does the “selectivity for the M1 receptor relative to the M4 receptor” value [1] read?
Answer: Its value is “highly selective for the M1 receptor relative to the M4 receptor”.

Question: Which “selectivity for the M1 receptor relative to the M4 receptor” value [1] does the source give for `CCOC(=O)N[C@H]1CCN(C2CCC3(CC2)C(=O)Nc2ccc(C)cc23)C1` (single isomer, unassigned) [Example 2-5] here?
Answer: The value was “highly selective for the M1 receptor relative to the M4 receptor”.

Question: For `CCOC(=O)N[C@H]1CCN(C2CCC3(CC2)C(=O)Nc2ccc(OC)cc23)C1` (single isomer, unassigned) [Example 2-10], which “selectivity for the M1 receptor relative to the M4 receptor” value [1] is on record?
Answer: Its value is “highly selective for the M1 receptor relative to the M4 receptor”.

Question: With `CCOC(=O)N[C@H]1CCN(C2CCC3(CC2)C(=O)Nc2ncc(Cl)cc23)C1` (single isomer, unassigned) [Example 2-17] as the molecule, how does the “selectivity for the M1 receptor relative to the M4 receptor” value [1] read?
Answer: The value was “highly selective for the M1 receptor relative to the M4 receptor”.

Question: Which “selectivity for the M1 receptor relative to the M4 receptor” value [1] does the source give for `CCOC(=O)N[C@H]1CCN(C2CCC3(CC2)C(=O)Nc2cc(F)ccc23)C1` (stereo partly drawn) [Example 2-7, ethyl [(3S)-1-(6′-fluoro-2′-oxo-1′,2′-dihydrospiro[cyclohexane-1,3′-indol]-4-yl)pyrrolidin-3-yl]carbamate] here?
Answer: The value was “highly selective for the M1 receptor relative to the M4 receptor”.

Question: How did the “selectivity for the M1 receptor relative to the M4 receptor” value [1] turn out when `CCOC(=O)N[C@H]1CCN(C2CCC3(CC2)C(=O)Nc2ccc(F)cc23)C1` (stereo partly drawn) [Example 2-8, ethyl [(3S)-1-(5′-fluoro-2′-oxo-1′,2′-dihydrospiro[cyclohexane-1,3′-indol]-4-yl)pyrrolidin-3-yl]carbamate] was run?
Answer: The value was “highly selective for the M1 receptor relative to the M4 receptor”.

Question: Which “selectivity for the M1 receptor relative to the M4 receptor” value [1] does the source give for `CCOC(=O)N1CCCN(C2CCC(C#N)(c3ccc(OC)cn3)CC2)CC1` (stereo not shown) [Example 3-19, ethyl 4-[4-(5-methoxypyridin-2-yl)-4-cyanocyclohexyl]-1,4-diazepane-1-carboxylate] here?
Answer: The value was “highly selective for the M1 receptor relative to the M4 receptor”.

Question: `CCOC(=O)N1CCCN(C2CCC(C#N)(c3ccc(OCC)cn3)CC2)CC1` (stereo not shown) [Example 3-20, ethyl 4-[4-cyano-4-(5-ethoxypyridin-2-yl)cyclohexyl]-1,4-diazepane-1-carboxylate] was tested. Which “selectivity for the M1 receptor relative to the M4 receptor” value [1] did it give?
Answer: The value was “highly selective for the M1 receptor relative to the M4 receptor”.

Question: Which “selectivity for the M1 receptor relative to the M4 receptor” value [1] does the source give for `C#CCOC(=O)N1CCCN(C2CCC(C#N)(c3ccc(OC)cn3)CC2)CC1` (stereo not shown) [Example 3-31, prop-2-yn-1-yl 4-[4-cyano-4-(5-methoxypyridin-2-yl)cyclohexyl]-1,4-diazepane-1-carboxylate] here?
Answer: The value was “highly selective for the M1 receptor relative to the M4 receptor”.

Question: `CC#CCOC(=O)N1CCCN(C2CCC(C#N)(c3ccc(OC)cn3)CC2)CC1` (stereo not shown) [Example 3-32, but-2-yn-1-yl 4-[4-cyano-4-(5-methoxypyridin-2-yl)cyclohexyl]-1,4-diazepane-1-carboxylate] was tested. Which “selectivity for the M1 receptor relative to the M4 receptor” value [1] did it give?
Answer: The value was “highly selective for the M1 receptor relative to the M4 receptor”.

Question: `CCOC(=O)N1CCCN(C2CCC3(CC2)C(=O)Nc2ccc(C)cc23)CC1` (stereo not shown) [Example 4-7, ethyl 4-(5′-methyl-2′-oxo-1′,2′-dihydrospiro[cyclohexane-1,3′-indol]-4-yl)-1,4-diazepane-1-carboxylate] was tested. Which “selectivity for the M1 receptor relative to the M4 receptor” value [1] did it give?
Answer: Its value is “highly selective for the M1 receptor relative to the M4 receptor”.

Question: How did the “selectivity for the M1 receptor relative to the M4 receptor” value [1] turn out when `CCOC(=O)N1CCCN(C2CCC3(CC2)C(=O)Nc2ccc(OC)cc23)CC1` (stereo not shown) [Example 4-12, ethyl 4-(5′-methoxy-2′-oxo-1′,2′-dihydrospiro[cyclohexane-1,3′-indol]-4-yl)-1,4-diazepane-1-carboxylate] was run?
Answer: The value was “highly selective for the M1 receptor relative to the M4 receptor”.

Question: `CCOC(=O)N1CCCN(C2CCC(c3nc(CC)c(C)[nH]3)CC2)CC1` (stereo not shown) [Example 5-1, ethyl 4-[4-(4-ethyl-5-methyl-1H-imidazol-2-yl)cyclohexyl]-1,4-diazepane-1-carboxylate] was tested. Which “selectivity for the M1 receptor relative to the M4 receptor” value [1] did it give?
Answer: Its value is “highly selective for the M1 receptor relative to the M4 receptor”.
